# Measured values: US11453666B2, “Autotaxin inhibitory compounds” (Cancer Research Technology Limited, priority 2015, dated 2022)
# Molecular target: human recombinant ATX (Homo sapiens, UniProt Q13822)
# Assay: Autotaxin (ATX) activity Quanta Red assay
# Format: biochemical
# Conditions: Table 2: additional compounds tested for ATX activity (Quanta Red Assay); read-out: Activity
# Outline: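 Recombinant human ATX reaction stopped after 2 h with Quanta Red stop solution; fluorescence read at […]. Controls with DMSO, with and without ATX; IC50 in duplicate.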
row,IC50 [nM],SMILES
1,193,"COc1ccc(CNC(=O)CCc2nc3cccnc3n2Cc2ccc(OC)cc2)cc1 [Example 222, N-(4-Methoxy-benzyl)-3-[3-(4-methoxy-benzyl)-3H-imidazo[4,5-b]pyridin-2-yl]-propionamide]"
2,596,"O=C(CCc1nc2cccnc2n1Cc1ccccc1)NCc1cccc(Cl)c1 [Example 232, 3-(3-Benzyl-3H-imidazo[4,5-b]pyridin-2-yl)-N-(3-chloro-benzyl)-propionamide]"
3,708,"CCOc1ccc(CCNC(=O)CCc2nc3cccnc3n2Cc2ccccc2)cc1 [Example 225, 3-(3-Benzyl-3H-imidazo[4,5-b]pyridin-2-yl)-N-[2-(4-ethoxy-phenyl)-ethyl]-propionamide]"

# Same assay, conditions: human recombinant ATX 0.8 μg/mL, 2 hours at room temperature, IC50 determined in duplicate; read-out: Activity (ATX activity, Quanta Red assay; IC50)
row,IC50 [nM],SMILES
1,68,"C[C@H](NC(=O)CCc1nc2cccnc2n1Cc1ccccc1)c1ccccc1 [Example 1, 3-(3-benzyl-3H-imidazo[4,5-b]pyridin-2-yl)-N—((S)-1-phenyl-ethyl)-propionamide]"
2,957,"C[C@H](OC(=O)NCc1nc2cccnc2n1Cc1ccc(F)cc1)c1ccc(F)cc1 [Example 164, [3-(4-Fluoro-benzyl)-3H-imidazo[4,5-b]pyridin-2-ylmethyl]-carbamic acid (S)-1-(4-fluoro-phenyl)-ethyl ester]"

row,SMILES,IC50 [nM]
1,"COc1ccc(Cn2c(CCC(=O)N[C@@H](C)c3ccc(Cl)cc3)nc3cccnc32)cc1 [Example 84, N-[(S)-1-(4-Chloro-phenyl)-ethyl]-3-[3-(4-methoxy-benzyl)-3H-imidazo[4,5-b]pyridin-2-yl]-propionamide]",3

# Same assay, conditions: read-out: Activity (ATX activity, Quanta Red assay; IC50)
row,SMILES,IC50 [nM]
1,"O=C(CCc1nc2cccnc2n1Cc1ccc(OC(F)F)cc1)N[C@H](Cc1ccccc1)C(=O)O [Example 197, (R)-2-{3-[3-(4-Difluoromethoxy-benzyl)-3H-imidazo[4,5-b]pyridin-2-yl]-propionylamino}-3-phenyl-propionic acid]",5
2,"C[C@H](NC(=O)CCc1nc2cccnc2n1Cc1ccc(F)cc1)c1ccc(N2CCCCC2)cc1 [Example 186, 3-[3-(4-Fluoro-benzyl)-3H-imidazo[4,5-b]pyridin-2-yl]-N-[(S)-1-(4-piperidin-1-yl-phenyl)-ethyl]-propionamide]",13
3,"CN(C)CCCOc1ccc(CNC(=O)CCc2nc3ccncc3n2Cc2ccc(OC(F)(F)F)cc2)cc1 [Example 128, N-[4-(3-Dimethylamino-propoxy)-benzyl]-3-[3-(4-trifluoromethoxy-benzyl)-3H-imidazo[4,5-c]pyridin-2-yl]-propionamide]",17
4,"C[C@H](NC(=O)CCc1nc2ccncc2n1Cc1ccc(F)cc1)c1ccccc1 [Example 130, 3-[3-(4-Fluoro-benzyl)-3H-imidazo[4,5-c]pyridin-2-yl]-N-((S)-1-phenyl-ethyl)-propionamide]",21
5,"COc1ccc(Cn2c(CCC(=O)NCCc3ccc(C)cc3)nc3cccnc32)cc1 [Example 108, 3-[3-(4-Methoxy-benzyl)-3H-imidazo[4,5-b]pyridin-2-yl]-N-(2-p-tolyl-ethyl)-propionamide]",180
6,"C[C@H](NC(=O)CSc1nc2cccnc2n1Cc1ccc(F)cc1)c1ccc(N2CCOCC2)cc1 [Example 147, 2-[3-(4-Fluoro-benzyl)-3H-imidazo[4,5-b]pyridin-2-ylsulfanyl]-N-[(S)-1-(4-morpholin-4-yl-phenyl)-ethyl]-acetamide]",3
7,"CC(C)(C)OC(=O)N1CCC(CNC(=O)CCc2nc3ccncc3n2Cc2ccc(OC(F)(F)F)cc2)CC1 [Example 135, 4-({3-[3-(4-Trifluoromethoxy-benzyl)-3H-imidazo[4,5-c]pyridin-2-yl]-propionylamino}-methyl)-piperidine-1-carboxylic acid tert-butyl ester]",1570
8,"C[C@H](NC(=O)CCc1cc2cc(F)cnc2n1Cc1ccc(OC(F)(F)F)cc1)c1ccc(F)cc1 [Example 139, N-[(S)-1-(4-Fluoro-phenyl)-ethyl]-3-[5-fluoro-1-(4-trifluoromethoxy-benzyl)-1H-pyrrolo[2,3-b]pyridin-2-yl]-propionamide]",13
9,"COc1ccc([C@H](C)NC(=O)CCc2nc3cc(C)cnc3n2Cc2ccc(OC(F)(F)F)cc2)cc1 [Example 212, N-[(S)-1-(4-Methoxy-phenyl)-ethyl]-3-[6-methyl-3-(4-trifluoromethoxy-benzyl)-3H-imidazo[4,5-b]pyridin-2-yl]-propionamide]",7
10,"O=C(CSc1nc2cccnc2n1Cc1ccc(OC(F)(F)F)cc1)N[C@@H](CO)c1ccccc1 [Example 142, N-((R)-2-Hydroxy-1-phenyl-ethyl)-2-[3-(4-trifluoromethoxy-benzyl)-3H-imidazo[4,5-b]pyridin-2-ylsulfanyl]-acetamide]",1
11,"C[C@H](NC(=O)CCc1nc2cccnc2n1Cc1ccc(OCc2ccccc2)cc1)c1ccc(F)cc1 [Example 80, 3-[3-(4-Benzyloxy-benzyl)-3H-imidazo[4,5-b]pyridin-2-yl]-N-[(S)-1-(4-fluoro-phenyl)-ethyl]-propionamide]",844
12,"O=C(CCc1nc2cccnc2n1Cc1ccc(F)c(F)c1)N[C@@H]1c2ccccc2C[C@H]1O [Example 59, 3-[3-(3,4-Difluoro-benzyl)-3H-imidazo[4,5-b]pyridin-2-yl]-N-((1R,2R)-2-hydroxy-indan-1-yl)-propionamide]",63
13,"C[C@H](NC(=O)CCc1nc2cccnc2n1Cc1ccc(F)c(F)c1)c1ccc(CN2CCOCC2)cc1 [Example 206, 3-[3-(3,4-difluoro-benzyl)-3H-imidazo[4,5-b]pyridin-2-yl]-N—[(S)-1-(4-morpholin-4-ylmethyl-phenyl)-ethyl]-propionamide]",3
14,"COc1ccc(CNC(=O)CCc2nc3cccc(F)c3n2Cc2ccc(OC)cc2)cc1 [Example 91, 3-[7-Fluoro-1-(4-methoxy-benzyl)-1H-benzoimidazol-2-yl]-N-(4-methoxy-benzyl)-propionamide]",14
15,"O=C(CCc1nc2cccnc2n1Cc1ccc(F)c(F)c1)NC(CO)c1ccc(Cl)cc1 (stereo not shown) [Example 35, N-[1-(4-Chloro-phenyl)-2-hydroxy-ethyl]-3-[3-(3,4-difluoro-benzyl)-3H-imidazo[4,5-b]pyridin-2-yl]-propionamide]",7
16,"O=C(CCc1nc2cccnc2n1Cc1ccc(F)c(F)c1)NCc1ccncc1 [Example 82, 3-[3-(3,4-Difluoro-benzyl)-3H-imidazo[4,5-b]pyridin-2-yl]-N-pyridin-4-ylmethyl-propionamide]",987
17,"CN(C)c1ccc(CNC(=O)CCc2nc3cccnc3n2Cc2ccc(F)cc2)cc1 [Example 58, N-(4-Dimethylamino-benzyl)-3-[3-(4-fluoro-benzyl)-3H-imidazo[4,5-b]pyridin-2-yl]-propionamide]",61
18,"COc1ccc(Cn2c(CCC(=O)N[C@@H](C)c3ccccc3)nc3cccnc32)cc1 [Example 92, 3-[3-(4-Methoxy-benzyl)-3H-imidazo[4,5-b]pyridin-2-yl]-N-((S)-1-phenyl-ethyl)-propionamide]",17

# Next, values leading:
row,IC50 [nM],SMILES
1,6,"C[C@H](NC(=O)CCc1nc2cccnc2n1Cc1ccc(F)cc1)c1ccc(N2CCCC2)cc1 [Example 180, 3-[3-(4-Fluoro-benzyl)-3H-imidazo[4,5-b]pyridin-2-yl]-N-[(S)-1-(4-pyrrolidin-1-yl-phenyl)-ethyl]-propionamide]"
2,5,"C[C@H](NC(=O)CCc1nc2cccnc2n1Cc1ccc(OC(F)(F)F)cc1)c1ccccn1 [Example 29, N-((S)-1-Pyridin-2-yl-ethyl)-3-[3-(4-trifluoromethoxy-benzyl)-3H-imidazo[4,5-b]pyridin-2-yl]-propionamide]"
3,778,"COc1ccc(CCNC(=O)CCc2nc3cccnc3n2Cc2ccc(OC)cc2)cc1 [Example 116, 3-[3-(4-Methoxy-benzyl)-3H-imidazo[4,5-b]pyridin-2-yl]-N-[2-(4-methoxy-phenyl)-ethyl]-propionamide]"
4,1,"C[C@H](NC(=O)CCc1nc2cccnc2n1Cc1ccc(OC(F)(F)F)cc1)c1ccc(N2CCN(C)CC2)cc1 [Example 167, N—{(S)-1-[4-(4-methyl-piperazin-1-yl)-phenyl]-ethyl}-3-[3-(4-trifluoromethoxy-benzyl)-3H-imidazo[4,5-b]pyridin-2-yl]-propionamide]"
5,212,"C[C@H](NC(=O)CCc1nc2cccnc2n1Cc1ccc(F)cc1)c1ccccn1 [Example 68, 3-[3-(4-Fluoro-benzyl)-3H-imidazo[4,5-b]pyridin-2-yl]-N-((S)-1-pyridin-2-yl-ethyl)-propionamide]"
6,19,"O=C(CCc1nc2cccnc2n1Cc1ccc(F)c(F)c1)NC(CCO)c1ccc(F)cc1 (stereo not shown) [Example 48, 3-[3-(3,4-Difluoro-benzyl)-3H-imidazo[4,5-b]pyridin-2-yl]-N-[1-(4-fluoro-phenyl)-3-hydroxy-propyl]-propionamide]"
7,162,"CC(C)(C)OC(=O)N1CCC[C@H](CNC(=O)CCc2nc3cccnc3n2Cc2ccc(OC(F)(F)F)cc2)C1 [Example 66, (R)-3-({3-[3-(4-Trifluoromethoxy-benzyl)-3H-imidazo[4,5-b]pyridin-2-yl]-propionylamino}-methyl)-piperidine-1-carboxylic acid tert-butyl ester]"
8,301,"COc1ccc(Cn2c(CCC(=O)NCc3ccccc3F)nc3cccnc32)cc1 [Example 114, N-(2-Fluoro-benzyl)-3-[3-(4-methoxy-benzyl)-3H-imidazo[4,5-b]pyridin-2-yl]-propionamide]"
9,406,"O=C(CCc1nc2cccnc2n1Cc1ccccc1)NCC1CCCCC1 [Example 111, 3-(3-Benzyl-3H-imidazo[4,5-b]pyridin-2-yl)-N-cyclohexylmethyl-propionamide]"
10,5,"C[C@H](NC(=O)CCc1nc2cccnc2n1Cc1ccc(Br)cc1)c1ccc(Cl)cc1 [Example 21, 3-[3-(4-Bromo-benzyl)-3H-imidazo[4,5-b]pyridin-2-yl]-N-[(S)-1-(4-chloro-phenyl)-ethyl]-propionamide]"
